This is an account of results in patent US6864076B2, “Antifungal proteins, DNA coding therefore, and hosts incorporating same” (Syngenta Mogen B.V., priority 1997, dated 2005).

Each structure is given as a SMILES string.

Common to all, as to assay: Oxidase activity (4-AAP/peroxidase, H2O2 production at 510 nm), Michaelis-Menten kinetics with glucose
The target in test [1] is glucose oxidase (GOX) from Aspergillus niger (Sigma, G 2133) (Aspergillus niger, UniProt P13006). Format: biochemical. As to conditions: substrate glucose, 50 mM potassium phosphate pH 7.0, 25 μM FAD, 45 ng GOX per assay. The procedure: (§1) Oxidase activity was measured utilizing the reagent 4-amino-antipyrine (4-AAP), based on Gallo, 1981 (Gallo, Methods in Enzymology, 71:665-668, 1981). A reaction volume of 500 μl contained 50 mM potassium phosphate buffer pH 7.0, 25 μM FAD, 10 mM NaN3, 0.01% Triton X-100, 6 mM 2,4,6,tribromohydroxybenzoic acid, 2 mM 4-AAP, and 10 units horseradish peroxidase. Hydrogenperoxide production was measured at 510 nm. Known amounts of hydrogen peroxide were included for calibration.
glucose oxidase (GOX) from Aspergillus niger (Sigma, G 2133), sequence (P13006 17-605): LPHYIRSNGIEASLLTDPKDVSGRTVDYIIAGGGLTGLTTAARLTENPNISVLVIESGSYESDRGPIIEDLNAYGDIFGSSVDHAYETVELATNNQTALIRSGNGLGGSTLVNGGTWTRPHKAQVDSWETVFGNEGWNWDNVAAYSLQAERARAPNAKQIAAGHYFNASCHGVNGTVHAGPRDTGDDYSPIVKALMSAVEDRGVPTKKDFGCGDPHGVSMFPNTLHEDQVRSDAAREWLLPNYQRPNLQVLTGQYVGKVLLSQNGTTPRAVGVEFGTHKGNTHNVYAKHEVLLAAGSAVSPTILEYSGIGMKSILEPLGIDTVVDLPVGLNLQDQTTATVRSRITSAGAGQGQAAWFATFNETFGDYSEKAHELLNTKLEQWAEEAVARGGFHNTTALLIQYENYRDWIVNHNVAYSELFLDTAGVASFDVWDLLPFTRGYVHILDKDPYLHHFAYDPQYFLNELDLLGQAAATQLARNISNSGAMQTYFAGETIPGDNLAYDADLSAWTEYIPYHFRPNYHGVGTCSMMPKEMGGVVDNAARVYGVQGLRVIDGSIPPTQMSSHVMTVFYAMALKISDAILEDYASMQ

Test [2] deals with T1, MS59 carbohydrate oxidase from sunflower (Helianthus annuus), SEQ ID NO: 16 (Helianthus annuus, UniProt A0A9K3EIF7).
T1 sequence (A0A9K3EIF7 29-538): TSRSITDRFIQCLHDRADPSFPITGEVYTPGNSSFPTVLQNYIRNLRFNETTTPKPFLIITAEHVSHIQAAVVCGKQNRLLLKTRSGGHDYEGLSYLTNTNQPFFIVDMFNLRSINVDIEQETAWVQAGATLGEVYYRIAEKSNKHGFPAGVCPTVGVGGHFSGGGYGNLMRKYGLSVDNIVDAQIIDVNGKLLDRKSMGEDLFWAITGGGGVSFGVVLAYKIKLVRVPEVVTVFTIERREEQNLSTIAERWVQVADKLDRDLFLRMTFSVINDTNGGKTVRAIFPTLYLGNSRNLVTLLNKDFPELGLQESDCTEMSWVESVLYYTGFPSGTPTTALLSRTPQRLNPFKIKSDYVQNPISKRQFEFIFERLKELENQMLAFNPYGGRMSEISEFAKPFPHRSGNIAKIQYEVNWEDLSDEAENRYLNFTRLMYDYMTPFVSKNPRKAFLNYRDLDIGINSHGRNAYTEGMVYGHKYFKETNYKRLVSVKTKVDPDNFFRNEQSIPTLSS
Format: biochemical, sunflower (Helianthus annuus cv. zebulon). The note with it: substrate glucose; 50 mM potassium phosphate pH 7.0, 25 μM FAD; 17 ng MS59 per assay; per mg protein. The protocol: as §1

Test [3] concerns the target T2, WL64 carbohydrate oxidase from lettuce (Lactuca sativa), SEQ ID NO: 58 (Lactuca sativa, UniProt Q8SA60).
T2 sequence (Q8SA60 28-540): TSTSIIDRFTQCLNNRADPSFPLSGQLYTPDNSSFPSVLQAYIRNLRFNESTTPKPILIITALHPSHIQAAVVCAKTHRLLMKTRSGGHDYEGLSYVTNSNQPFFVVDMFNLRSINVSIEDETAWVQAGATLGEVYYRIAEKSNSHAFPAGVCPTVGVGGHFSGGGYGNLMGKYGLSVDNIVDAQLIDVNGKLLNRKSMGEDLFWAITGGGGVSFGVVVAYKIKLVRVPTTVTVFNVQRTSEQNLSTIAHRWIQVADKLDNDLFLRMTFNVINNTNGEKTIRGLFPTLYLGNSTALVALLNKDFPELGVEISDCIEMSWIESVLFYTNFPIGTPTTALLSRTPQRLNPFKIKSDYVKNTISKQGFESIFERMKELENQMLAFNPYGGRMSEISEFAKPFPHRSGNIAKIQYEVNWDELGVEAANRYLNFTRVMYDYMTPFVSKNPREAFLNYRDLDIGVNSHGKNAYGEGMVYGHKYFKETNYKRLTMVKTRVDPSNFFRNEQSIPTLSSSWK
Format: biochemical, lettuce (Lactuca sativa cv. Lollo bionda). As to conditions: substrate glucose; 50 mM potassium phosphate pH 7.0, 25 μM FAD; 29 ng WL64 per assay; per mg protein. The procedure: as §1

The term Km denotes the substrate concentration at which the rate is half of its maximum.

For the compound `OC[C@H]1OC(O)[C@H](O)[C@@H](O)[C@@H]1O` (stereo partly shown) [Glucose, glucose], in test [1] (Lineweaver-Burk), the Km is 359 µM. The Vmax came out at 9.7 μmolH2O2/min/mg in test [1] (per mg protein), 16.8 μmolH2O2/min/mg in test [2] and 5.7 μmolH2O2/min/mg in test [3].
